Data published in ChEMBL document CHEMBL3132769, “Fragment growing to retain or alter the selectivity of anchored kinase hinge-binding fragments” (Medchemcomm, 2014).

Tests used:
[1] = target: T1, Serine/threonine-protein kinase D3 (Homo sapiens) (UniProt O94806); experiment: Inhibition of human full length PKD3 expressed in baculovirus assessed as substrate phosphorylation using fluorescence-labelled peptides as substrate at 0.2 uM after 90 mins by microfluidic peptide phosphorylation assay
T1 sequence (whole entry): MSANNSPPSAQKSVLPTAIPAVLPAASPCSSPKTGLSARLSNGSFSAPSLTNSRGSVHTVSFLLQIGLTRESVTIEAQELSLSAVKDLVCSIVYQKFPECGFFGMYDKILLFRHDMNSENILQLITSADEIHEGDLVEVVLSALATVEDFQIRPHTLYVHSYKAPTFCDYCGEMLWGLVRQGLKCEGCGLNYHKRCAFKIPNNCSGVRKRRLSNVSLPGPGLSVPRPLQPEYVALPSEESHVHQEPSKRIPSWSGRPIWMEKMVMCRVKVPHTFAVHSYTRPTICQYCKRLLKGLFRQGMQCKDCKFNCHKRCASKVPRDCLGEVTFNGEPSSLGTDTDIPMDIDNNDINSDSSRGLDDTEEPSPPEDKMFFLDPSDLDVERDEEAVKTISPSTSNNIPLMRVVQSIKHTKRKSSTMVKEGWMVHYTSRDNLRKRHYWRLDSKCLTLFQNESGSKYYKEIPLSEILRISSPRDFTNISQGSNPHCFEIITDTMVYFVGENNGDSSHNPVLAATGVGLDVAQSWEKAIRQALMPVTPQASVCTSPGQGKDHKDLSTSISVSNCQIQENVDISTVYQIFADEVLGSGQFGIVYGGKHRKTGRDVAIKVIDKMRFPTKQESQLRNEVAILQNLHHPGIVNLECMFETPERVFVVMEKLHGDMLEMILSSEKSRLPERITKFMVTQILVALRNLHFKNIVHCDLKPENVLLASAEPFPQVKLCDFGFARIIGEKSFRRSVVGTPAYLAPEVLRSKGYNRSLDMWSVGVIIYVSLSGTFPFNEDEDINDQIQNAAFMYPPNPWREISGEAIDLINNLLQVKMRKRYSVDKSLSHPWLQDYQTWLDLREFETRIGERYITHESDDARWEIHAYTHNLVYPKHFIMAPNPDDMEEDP

[2] = target: Platelet-derived growth factor receptor alpha (Homo sapiens) (UniProt P16234); experiment: Inhibition of human PDGFR alpha catalytic domain expressed in baculovirus assessed as substrate phosphorylation using fluorescence-labelled peptides as substrate at 95 uM after 90 mins by microfluidic peptide phosphorylation assay
[3] = target: T2, Interleukin-1 receptor-associated kinase 4 (Homo sapiens) (UniProt Q9NWZ3); experiment: Inhibition of human IRAK4 catalytic domain expressed in baculovirus assessed as substrate phosphorylation using fluorescence-labelled peptides as substrate at 9 uM after 90 mins by microfluidic peptide phosphorylation assay
T2 sequence (whole entry): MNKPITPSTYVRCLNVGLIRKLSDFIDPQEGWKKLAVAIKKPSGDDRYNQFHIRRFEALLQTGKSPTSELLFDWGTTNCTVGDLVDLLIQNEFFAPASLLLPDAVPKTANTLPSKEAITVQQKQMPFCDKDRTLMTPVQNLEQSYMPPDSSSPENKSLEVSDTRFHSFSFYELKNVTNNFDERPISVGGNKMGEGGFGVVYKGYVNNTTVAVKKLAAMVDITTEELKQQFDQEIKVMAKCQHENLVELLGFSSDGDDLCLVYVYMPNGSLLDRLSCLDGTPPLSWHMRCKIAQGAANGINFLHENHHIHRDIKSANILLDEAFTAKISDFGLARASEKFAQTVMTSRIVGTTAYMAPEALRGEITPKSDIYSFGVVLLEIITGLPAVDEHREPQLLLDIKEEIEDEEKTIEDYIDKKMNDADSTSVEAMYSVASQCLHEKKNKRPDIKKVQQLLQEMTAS

[4] = target: T2, Interleukin-1 receptor-associated kinase 4 (Homo sapiens); experiment: Inhibition of human IRAK4 catalytic domain expressed in baculovirus assessed as substrate phosphorylation using fluorescence-labelled peptides as substrate at 1000 uM after 90 mins by microfluidic peptide phosphorylation assay
[5] = target: T3, Serine/threonine-protein kinase D2 (Homo sapiens) (UniProt Q9BZL6); experiment: Inhibition of human full length PKD2 expressed in baculovirus assessed as substrate phosphorylation using fluorescence-labelled peptides as substrate at 2 uM after 90 mins by microfluidic peptide phosphorylation assay
T3 sequence (whole entry): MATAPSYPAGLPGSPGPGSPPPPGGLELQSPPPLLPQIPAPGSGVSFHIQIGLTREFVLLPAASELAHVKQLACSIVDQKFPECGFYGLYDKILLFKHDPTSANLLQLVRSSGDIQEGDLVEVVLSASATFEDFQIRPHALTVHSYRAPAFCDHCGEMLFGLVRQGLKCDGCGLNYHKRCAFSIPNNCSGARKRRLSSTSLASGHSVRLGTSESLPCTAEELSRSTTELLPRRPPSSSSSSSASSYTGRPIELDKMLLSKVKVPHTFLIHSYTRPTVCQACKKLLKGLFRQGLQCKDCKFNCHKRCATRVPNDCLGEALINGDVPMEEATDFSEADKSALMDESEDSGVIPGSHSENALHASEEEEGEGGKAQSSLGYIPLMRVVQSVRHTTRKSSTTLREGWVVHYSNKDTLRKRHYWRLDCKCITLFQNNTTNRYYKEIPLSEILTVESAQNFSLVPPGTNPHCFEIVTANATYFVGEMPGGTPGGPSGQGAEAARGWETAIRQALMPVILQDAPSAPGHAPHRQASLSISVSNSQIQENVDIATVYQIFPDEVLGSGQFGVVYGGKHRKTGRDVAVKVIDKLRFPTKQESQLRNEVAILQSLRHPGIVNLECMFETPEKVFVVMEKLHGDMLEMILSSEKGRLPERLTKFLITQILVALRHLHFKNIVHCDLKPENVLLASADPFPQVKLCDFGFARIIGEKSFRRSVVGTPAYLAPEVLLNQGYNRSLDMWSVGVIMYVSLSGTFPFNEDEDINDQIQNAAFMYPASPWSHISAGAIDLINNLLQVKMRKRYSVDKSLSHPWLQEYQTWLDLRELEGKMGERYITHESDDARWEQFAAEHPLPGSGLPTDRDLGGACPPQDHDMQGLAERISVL

Chain of Platelet-derived growth factor receptor alpha (Homo sapiens) (P16234 whole entry, the tested form may be a part): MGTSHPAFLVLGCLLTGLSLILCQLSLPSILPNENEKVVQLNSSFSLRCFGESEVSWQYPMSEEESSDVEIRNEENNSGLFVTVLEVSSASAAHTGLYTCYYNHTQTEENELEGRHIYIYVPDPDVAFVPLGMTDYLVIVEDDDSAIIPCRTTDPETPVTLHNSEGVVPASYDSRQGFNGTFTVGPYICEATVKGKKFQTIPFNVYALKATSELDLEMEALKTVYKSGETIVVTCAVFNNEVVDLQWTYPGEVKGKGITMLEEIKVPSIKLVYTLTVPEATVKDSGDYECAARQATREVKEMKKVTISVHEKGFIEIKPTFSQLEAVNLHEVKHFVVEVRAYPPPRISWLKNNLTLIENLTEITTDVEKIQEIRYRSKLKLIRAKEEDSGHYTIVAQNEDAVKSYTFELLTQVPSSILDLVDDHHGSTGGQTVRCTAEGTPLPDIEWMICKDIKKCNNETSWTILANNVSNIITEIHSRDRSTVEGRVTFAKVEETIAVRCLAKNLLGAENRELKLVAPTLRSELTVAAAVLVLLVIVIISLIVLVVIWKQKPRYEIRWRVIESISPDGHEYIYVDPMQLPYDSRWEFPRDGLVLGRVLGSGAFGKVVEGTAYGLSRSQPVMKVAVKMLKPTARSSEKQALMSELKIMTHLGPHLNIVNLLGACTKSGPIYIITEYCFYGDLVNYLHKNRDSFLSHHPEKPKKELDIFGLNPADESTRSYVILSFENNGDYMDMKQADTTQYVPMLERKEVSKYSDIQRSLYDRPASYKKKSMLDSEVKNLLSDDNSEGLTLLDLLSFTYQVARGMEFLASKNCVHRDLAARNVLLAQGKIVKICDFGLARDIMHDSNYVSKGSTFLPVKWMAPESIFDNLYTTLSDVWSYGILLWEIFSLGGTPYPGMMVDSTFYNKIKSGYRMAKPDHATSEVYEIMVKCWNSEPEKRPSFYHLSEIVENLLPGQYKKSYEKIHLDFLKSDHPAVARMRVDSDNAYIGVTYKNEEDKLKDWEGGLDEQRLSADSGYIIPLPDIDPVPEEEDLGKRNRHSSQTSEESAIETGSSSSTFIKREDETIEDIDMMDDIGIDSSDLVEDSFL

## Clc1ccc(C2(c3ccc(-c4ncnc5[nH]cnc45)cc3)CCNCC2)cc1
[1]
  inhibition: 12.5%

## NCCc1ccc(-c2ncnc3[nH]cnc23)cc1
[2]
  inhibition: 37%

## NCC1CN(c2ncnc3[nH]c4cnccc4c23)CCO1 (stereo not given)
[3]
  inhibition: 56.5%

## c1cnc2[nH]ccc2c1
[4]
  inhibition: 65%

## NC1CCN(c2ncnc3[nH]ccc23)CC1
[5]
  inhibition: 6.5%
